According to US11149033B2, “Heteroaryl compound, enantiomer, diastereomer or pharmaceutically acceptable salt thereof, and antiviral composition containing same as active ingredient” (priority 2016, dated 2021):
Where two headings read alike, the source gives them in different places.

Assays:
B/Florida/04/2006 = assay: Antiviral activity (drug efficacy evaluation by concentration) against B/Florida/04/2006; format: cell-based, B type influenza virus
[1] = system: A/California/07/2009 (H1N1); assay: Antiviral activity (drug efficacy evaluation by concentration) against A/California/07/2009 (H1N1); format: cell-based, A type influenza virus
A/Perth/16/2009 (H3N2) = assay: Antiviral activity (drug efficacy evaluation by concentration) against A/Perth/16/2009 (H3N2); format: cell-based, A type influenza virus
MDCK cells = assay: Cytotoxicity (CC50) in the influenza infection assay
[2] = read-out: EC50 B/Florida/04/2006, B/Florida/04/2006
[3] = Influenza A virus, H1N1, A/California/07/2009 (H1N1), read-out: EC50 A/California/07/2009 (H1N1)
[4] = Influenza A virus, H3N2, A/Perth/16/2009 (H3N2), read-out: EC50 A/Perth/16/2009 (H3N2)
[5] = CC50 B/Florida/04/2006, cytotoxicity in the B/Florida/04/2006 assay
[6] = Influenza A virus, H1N1, read-out: EC50
[7] = Influenza A virus, H3N2, read-out: EC50
[8] = CC50, third EC50/CC50 column pair (c7), beside the EC50 of c6

Compound | EC50 (B/Florida/04/2006; [2]) [µM] | EC50 ([1]; A/California/07/2009 (H1N1), read-out: EC50 A/California/07/2009 (H1N1)) [µM] | EC50 (A/Perth/16/2009 (H3N2); A/Perth/16/2009 (H3N2), read-out: EC50 A/Perth/16/2009 (H3N2)) [µM] | CC50 (MDCK cells; read-out: CC50 A/California/07/2009 (H1N1), cytotoxicity in the A/California/07/2009 (H1N1) assay) [µM] | CC50 (MDCK cells; read-out: CC50 A/Perth/16/2009 (H3N2), cytotoxicity in the A/Perth/16/2009 (H3N2) assay) [µM] | CC50 (MDCK cells; read-out: CC50 B/Florida/04/2006, cytotoxicity in the B/Florida/04/2006 assay) [µM] | EC50 [1, 3] [µM] | EC50 (A/Perth/16/2009 (H3N2); [4]) [µM] | melting point [°C] | CC50 (in vitro; [5]) [µM] | EC50 (B/Florida/04/2006) [µM] | EC50 [1, 6] [µM] | EC50 (A/Perth/16/2009 (H3N2); [7]) [µM] | CC50 (in vitro; CC50, beside the EC50 of c2) [µM] | CC50 (in vitro; CC50, beside the EC50 of c4) [µM] | CC50 (in vitro; [8]) [µM]
Cc1nn(Cc2nnc(SCc3ccccc3-c3ccncc3)o2)c(C)c1Br [Compound 20, 2-((4-bromo-3,5-dimethyl-1H-pyrazol-1-yl)methyl)-5-((2-(pyridin-4-yl)benzyl)thio)-1,3,4-oxadiazole] | 0.66 | 0.7 | 0.7 | 8.3 | 10.2 | 10.2 | – | – | – | – | – | – | – | – | – | –
Cc1cccc(C)c1Nc1nnc(C(=O)c2ccccc2)o1 [Compound 76, (5-((2,6-dimethylphenyl)amino)-1,3,4-oxadiazol-2-yl)(phenyl)methanone] | > 50 | – | – | – | – | – | 14.1 | 14.1 | 236.1 | > 50 | – | – | – | – | – | –
Brc1ccc(Cc2nnc(/C=C/c3ccccc3C3CCCCC3)o2)cc1 [Compound 111, 2-(4-bromobenzyl)-5-(2-cyclohexylstyryl)-1,3,4-oxadiazole] | – | – | – | – | – | – | – | – | 117.1 | – | 41.3 | 31.8 | 34.3 | 32.5 | > 50 | > 50
Fc1ccc(/C=C/c2nnc(Cc3cccc(Br)c3)o2)c(Cl)c1 [Compound 178, (E)-2-(3-bromobenzyl)-5-(2-chloro-4-fluorostyryl)-1,3,4-oxadiazole] | – | – | – | – | – | – | – | – | 121.7 | – | 0.95 | 0.99 | 0.75 | > 50 | > 50 | > 50
Fc1ccc(Cl)c(/C=C/c2nnc(Cc3cccc(Br)c3)o2)c1 [Compound 193, 2-(3-bromobenzyl)-5-(2-chloro-5-fluorostyryl)-1,3,4-oxadiazole] | – | – | – | – | – | – | – | – | 97.1 | – | > 50 | > 50 | > 50 | > 50 | > 50 | > 50
Clc1ccc(/C=C/c2nnc(Cc3ccc(Br)cc3)o2)cc1 [Compound 171, 2-(4-bromobenzyl)-5-(4-chlorostyryl)-1,3,4-oxadiazole] | – | – | – | – | – | – | – | – | 129 | – | 4.3 | 3.74 | 3.63 | > 50 | 49.5 | 36.2
Brc1ccc(Cc2nnc(/C=C/c3cccc4ccccc34)o2)cc1 [Compound 197, 2-(4-bromobenzyl)-5-(2-(naphthalen-1-yl)vinyl)-1,3,4-oxadiazole] | – | – | – | – | – | – | – | – | 116 | – | 44.1 | 26.9 | 46.1 | > 50 | > 50 | > 50
Oc1ccccc1/C=C/c1nnc(Cc2ccc(Br)cc2)o1 [Compound 209, 2-(2-(5-(4-bromobenzyl)-1,3,4-oxadiazol-2-yl)vinyl)phenol] | – | – | – | – | – | – | – | – | 168.3 | – | > 50 | 46.8 | 28.6 | > 50 | > 50 | > 50
Fc1ccc(/C=C/c2nnc(Cc3cccc(Br)c3)o2)cc1F [Compound 191, 2-(3-bromobenzyl)-5-(3,4-difluorostyryl)-1,3,4-oxadiazole] | – | – | – | – | – | – | – | – | 112.8 | – | 13.2 | 8.24 | 4.99 | > 50 | > 50 | > 50
Cc1nn(Cc2nnc(SCc3ccccc3Oc3ccccc3)o2)c(C)c1Br [Compound 29, 2-((4-bromo-3,5-dimethyl-1H-pyrazol-1-yl)methyl)-5-((2-phenoxybenzyl)thio)-1,3,4-oxadiazole] | 1.99 | – | – | – | – | – | 1.2 | 1.4 | 92.3 | 5.23 | – | – | – | – | – | –
Oc1cccc(Cc2nnc(/C=C/c3ccc(F)cc3Cl)o2)c1 [Compound 201, (E)-3-((5-(2-chloro-4-fluorostyryl)-1,3,4-oxadiazol-2-yl)methyl)phenol] | – | – | – | – | – | – | – | – | 152.7 | – | 3.7 | 3.25 | 3.05 | > 50 | > 50 | > 50
Cc1ccc(/C=C/c2nnc(Cc3cccc(Br)c3)o2)c(C)c1 [Compound 200, 2-(3-bromobenzyl)-5-(2,4-dimethylstyryl)-1,3,4-oxadiazole] | – | – | – | – | – | – | – | – | 74.2 | – | 10.2 | 11.7 | 11.9 | > 50 | > 50 | > 50
Fc1ccc(/C=C/c2nnc(Cc3cccc(Br)c3)o2)cc1 [Compound 188, 2-(3-bromobenzyl)-5-(4-fluorostyryl)-1,3,4-oxadiazole] | – | – | – | – | – | – | – | – | 95.3 | – | 12.2 | 9.58 | 11.6 | > 50 | > 50 | > 50
CC(C)c1ccccc1/C=C/c1nnc(Cc2ccc(Br)cc2F)o1 [Compound 169, 2-(4-bromo-2-fluorobenzyl)-5-(2-isopropylstyryl)-1,3,4-oxadiazole] | – | – | – | – | – | – | – | – | 71.9 | – | 3.08 | 2.13 | 2.22 | 20.3 | > 50 | 37.2
Cc1cccc(C)c1Nc1nnc(C(O)c2ccc(F)c(Cl)c2)o1 (stereo not drawn) [Compound 79, (3-chloro-4-fluorophenyl)(5-((2,6-dimethylphenyl)amino)-1,3,4-oxadiazol-2-yl)methanol] | > 50 | – | – | – | – | – | > 50 | > 50 | 185.8 | > 50 | – | – | – | – | – | –
Fc1ccc(/C=C/c2nnc(Nc3ccc(Br)cc3)o2)c(Cl)c1 [Compound 87, (E)-N-(4-bromophenyl)-5-(2-chloro-4-fluorostyryl)-1,3,4-oxadiazol-2-amine] | – | – | – | – | – | – | – | – | 218.7 | – | 2.52 | 2.74 | 1.97 | > 50 | > 50 | > 50
Cc1cc(Br)cc(C)c1Nc1nnc(SCc2ccccc2-c2ccccc2)o1 [Compound 61, 5-(([1,1′-biphenyl]-2-ylmethyl)thio)-N-(4-bromo-2,6-dimethylphenyl)-1,3,4-oxadiazol-2-amine] | 2.3 | – | – | – | – | – | 2.3 | 2.61 | 211.2 | 4.02 | – | – | – | – | – | –
Brc1ccc(Cc2nnc(/C=C/c3ccccc3-c3ccccc3)o2)cc1 [Compound 126, (E)-2-(2-([1,1′-biphenyl]-2-yl)vinyl)-5-(4-bromobenzyl)-1,3,4-oxadiazole] | – | – | – | – | – | – | – | – | 87.4 | – | > 50 | 45.7 | > 50 | > 50 | > 50 | > 50
Brc1ccc(Cc2nnc(/C=C/c3ccccc3Oc3ccccc3)o2)cc1 [Compound 127, (E)-2-(4-bromobenzyl)-5-(2-phenoxystyryl)-1,3,4-oxadiazole] | – | – | – | – | – | – | – | – | 125.5 | – | 16 | 34.9 | 24.4 | > 50 | > 50 | > 50
O=C(c1ccccc1)c1nnc(Cc2ccc(Br)cc2)o1 [Compound 64, (5-(4-bromobenzyl)-1,3,4-oxadiazol-2-yl)(phenyl)methanone] | 40.5 | – | – | – | – | – | 5.97 | > 50 | 139.9 | > 50 | – | – | – | – | – | –
